The text below walks through data of patent publication US20240300946A1, “EGFR INHIBITORS” (Blueprint Medicines Corporation, priority 2021, published 2024).

Like-named read-outs stand apart in the source and are kept apart here.

Assay [1] deals with phosphorylation of EGFR in NCI-H1975 cell line that harbors the EGFR L858R T790 M mutations. Kind of assay: NCI-H1975 pEGFR AlphaLISA assay. The format is cell-based. Conditions: p-EGFR (Tyr1068), 4-5 hours incubation, read-out: Ext pEGFR H1975 GMean IC50 (nM) Protocol: @ Pharmaron AlphaLISA (Num). How it is done:
Inhibitory effects of the compounds of the disclosure were evaluated in cellular assays that measure level of intracellular phosphorylation of EGFR in NCI-H1975 cell line that harbors the EGFR L858R T790 M mutations (ATCC, CRL-5908) using AlphaLISA sureFire ultra p-EGFR (Tyr1068) assay kit (PerkinElmer, ALSU-PEGFR-A50K). The NCI-H1975 cells were seeded at 12.5K/well in 22 μL into 384 well opti plate (PerkinElmer, 6007299) and adhering overnight at 37° C./5% CO2. On the next day, the test compounds and DMSO control were added into H1975 cell plate followed by incubation at 37° C./5% CO2 for 4-5 hours. The cells were then spin down in the 384-well plate and lysed with 10 μL of 1× AlphaLISA lysis buffer followed by shaking at 600 rpm for 10 minutes at room temperature. After that, 5 μL of an acceptor bead mix was added to each well followed by incubation at room temperature for 1.5-2 h in dark. Then 5 μL of a donor bead mix was added to each well followed by overnight incubation at room temperature in dark. On the next day, the plate was read at a compatible plate reader to obtain pEGFR signal. Percent of pEGFR inhibition was plotted against log concentration of compounds to generate IC50 values.
In general terms: Alpha assays give light when donor and acceptor beads are brought close together.

In assay [2] the target is T1, EGFR (L858R T790 M C797S) (Homo sapiens, UniProt P00533, C797S/L858R/T790M).
T1 construct: purchased SignalChem E10-122VG
T1 sequence (P00533 25-1210 T790M/C797S/L858R): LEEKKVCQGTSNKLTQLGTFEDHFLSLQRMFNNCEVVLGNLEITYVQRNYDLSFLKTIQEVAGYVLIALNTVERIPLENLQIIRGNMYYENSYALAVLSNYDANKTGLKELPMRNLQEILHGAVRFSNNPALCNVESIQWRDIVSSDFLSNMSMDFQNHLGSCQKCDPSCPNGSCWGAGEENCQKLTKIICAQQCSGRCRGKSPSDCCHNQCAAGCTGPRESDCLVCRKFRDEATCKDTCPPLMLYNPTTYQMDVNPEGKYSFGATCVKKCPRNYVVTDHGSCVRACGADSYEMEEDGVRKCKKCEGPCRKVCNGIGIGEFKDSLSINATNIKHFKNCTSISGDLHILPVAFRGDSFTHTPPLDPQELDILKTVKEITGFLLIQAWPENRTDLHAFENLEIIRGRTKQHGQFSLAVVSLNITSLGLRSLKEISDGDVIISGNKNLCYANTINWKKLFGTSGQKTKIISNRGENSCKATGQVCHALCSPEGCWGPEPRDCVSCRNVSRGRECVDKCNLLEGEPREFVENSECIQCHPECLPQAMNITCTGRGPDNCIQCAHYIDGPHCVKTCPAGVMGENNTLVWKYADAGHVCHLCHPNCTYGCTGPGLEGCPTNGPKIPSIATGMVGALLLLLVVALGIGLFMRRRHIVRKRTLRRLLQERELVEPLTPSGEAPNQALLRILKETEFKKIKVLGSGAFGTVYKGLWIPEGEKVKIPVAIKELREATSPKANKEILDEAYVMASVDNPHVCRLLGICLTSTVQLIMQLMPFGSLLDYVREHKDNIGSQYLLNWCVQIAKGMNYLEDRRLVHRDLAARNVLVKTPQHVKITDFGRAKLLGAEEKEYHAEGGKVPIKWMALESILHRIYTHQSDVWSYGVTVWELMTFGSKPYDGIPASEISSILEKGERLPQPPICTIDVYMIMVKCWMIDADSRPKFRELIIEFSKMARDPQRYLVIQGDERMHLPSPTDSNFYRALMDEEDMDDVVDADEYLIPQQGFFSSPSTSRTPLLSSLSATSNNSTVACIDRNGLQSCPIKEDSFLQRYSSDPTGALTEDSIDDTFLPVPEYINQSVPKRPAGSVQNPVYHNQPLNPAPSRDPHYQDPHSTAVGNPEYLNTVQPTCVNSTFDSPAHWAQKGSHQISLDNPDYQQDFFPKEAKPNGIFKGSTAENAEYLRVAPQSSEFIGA
Kind of assay: Biochemical EGFR inhibition assay (Caliper mobility shift), LRTMCS mutant at 1 mM ATP. Conditions: read-out: LRTMCS (PH) IC50 (nM) @ 1 mM ATP (Num). How it is done: Inhibitory effects of the compounds of the disclosure were measured in biochemical assays that measure the phosphorylation activity of EGFR enzyme phosphorylates 2.5 micromolar 5-FAM-[…]-CONH2 peptide substrate (FL-Peptide 22, PerkinElmer, 760366) in the presence of adenosine-5′-triphosphate (ATP) and varying concentrations of the test compound in 100 mM 2-[4-(2-hydroxyethyl)piperazin-1-yl]ethanesulfonic acid (HEPES), pH 7.5, 10 mM MgCl2, 0.015% Brij-35, 1 mM dithiothreitol (DTT), 1.0% dimethylsulfoxide (DMSO). Assays were performed at 1.0 mM ATP or at ATP Km of the EGFR enzymes. Reactions proceeded until between 10% to 20% total peptides were phosphorylated at room temperature (25° C.) and were terminated with 35 mM 2,2′,2″,2′″-(ethane-1,2-diyldinitrilo)tetraacetic acid (EDTA). Product was detected using the Caliper mobility shift detection method where the phosphorylated peptide (product) and substrate were electrophoretically separated and measured. Percent activity was plotted against log concentration of compound and points to generate an apparent IC50. The following enzyme forms of EGFR were examples that were used in these assays: • EGFR WT (SignalChem, E10-112G) • EGFR (L858R T790 M C797S) (SignalChem, E10-122VG) • EGFR (d746-750) T790 M C797S (SignalChem, E10-122UG) • EGFR L858R (SignalChem, E10-122BG) • EGFR (d746-750) (SignalChem, E10-122JG)

Setting [3] is: Homo sapiens, NCI-H1975, NCI-H1975 cells.

Take `CC(C)c1ccc(N2CC(CS(C)(=O)=O)C2)c2cnc(Nc3ccnc([C@H]4C[C@@H]4C(F)F)n3)cc12` (single isomer, unassigned) [Example 17, N-(2-((1S,2S)-2-(difluoromethyl)cyclopropyl)pyrimidin-4-yl)-5-isopropyl-8-(3-((methylsulfonyl)methyl)azetidin-1-yl)isoquinolin-3-amine or N-(2-((1R,2R)-2-(difluoromethyl)cyclopropyl)pyrimidin-4-yl)-5-isopropyl-8-(3-((methylsulfonyl)methyl)azetidin-1-yl)isoquinolin-3-amine]: the IC50 in assay [1] (NCI-H1975 cells) is above 50 nM; in assay [2], above 100 nM.
As to `CC(C)c1ncc(N2CC(CS(C)(=O)=O)C2)c2cnc(Nc3ccnc(-c4cnn(C)c4)n3)cc12` [Example 9, 5-isopropyl-N-(2-(1-methyl-1H-pyrazol-4-yl)pyrimidin-4-yl)-8-(3-((methylsulfonyl)methyl)azetidin-1-yl)-2,6-naphthyridin-3-amine], the 50% inhibitory concentration (IC50) in assay [1] (setting [3]) is 30 to 50 nM; in assay [2] it was at most 15 nM.
`CC(C)c1ccc(N2C[C@H](CS(C)(=O)=O)[C@H]2C)c2cnc(Nc3ccnc(-c4cccnc4)n3)cc12` (single isomer, unassigned) [Example 22, 5-isopropyl-8-((2R,3S)-2-methyl-3-((methylsulfonyl)methyl)azetidin-1-yl)-N-(2-(pyridin-3-yl)pyrimidin-4-yl)isoquinolin-3-amine or 5-isopropyl-8-((2S,3R)-2 methyl-3-((methylsulfonyl)methyl)azetidin-1-yl)-N-(2-(pyridin-3-yl)pyridin-4-yl) isoquinolin-3-amine]: the IC50 is below 10 nM in assay [1] (setting [3]) and at most 15 nM in assay [2].
The matching figures for `CC(C)c1cnc(N2CC(CS(C)(=O)=O)C2)c2cnc(Nc3ccnc([C@H]4C[C@H](O)C4)n3)cc12` [Example 7, (1r,3r)-3-(4-((5-isopropyl-8-(3-((methylsulfonyl)methyl)azetidin-1-yl)-2,7-naphthyridin-3-yl)amino)pyrimidin-2-yl)cyclobutan-1-ol]: above 50 nM and 15 to 20 nM.
For the compound `Cc1ncc(-c2nccc(Nc3cc4c(C(C)C)ccc(N5C[C@H](CS(C)(=O)=O)[C@H]5C)c4cn3)n2)s1` (single isomer, unassigned) [Example 21, 5-isopropyl-8-((2S,3S)-2-methyl-3-((methylsulfonyl)methyl)azetidin-1-yl)-N-(2-(2-methylthiazol-5-yl)pyrimidin-4-yl)isoquinolin-3-amine or 5-isopropyl-8-((2S,3R)-2-menthyl-3-((methylsulfonyl)methyl)azetidin-1-yl)-N-(2-(2-methylthiazol-5-yl)pyrimidin-4-yl)isoquinolin-3-amine], the IC50 is above 50 nM in assay [1] (NCI-H1975 cells) and above 100 nM in assay [2].
`CC(C)c1ccc(N2C[C@H](CS(C)(=O)=O)[C@H]2C)c2cnc(Nc3ccnc(-c4cnn(C)c4)n3)cc12` (single isomer, unassigned) [Example 23, 5-isopropyl-N-(2-(1-methyl-1H-pyrazol-4-yl)pyrmidin-4-yl)-8-((2S,3S)-2-methyl-3-((methylsulfonyl)methy)azetidin-1-yl)isoquinolin-3-amine or 5-isopropyl-N-(2-(1-methyl-1H-pyrazol-4-yl)pyrimidin-4-yl)-8-((2S,3R)-2-methyl-3-((methylsulfonyl)methyl)azetidin-1-yl)isoquinolin-3-amine]: the IC50 in assay [1] (setting [3]) is 10 to 20 nM; in assay [2], at most 15 nM.
Turning to `Cc1ncc(-c2nccc(Nc3cc4c(C(C)C)ncc(N5CC(CS(C)(=O)=O)C5)c4cn3)n2)s1` [Example 8, 5-isopropyl-8-(3-((methylsulfonyl)methyl)azetidin-1-yl)-N-(2-(2-methylthiazol-5-yl)pyrimidin-4-yl)-2,6-naphthyridin-3-amine], the IC50 in assay [1] (setting [3]) was below 10 nM; in assay [2] it was at most 15 nM.
With `C[C@H](CO)c1ccc(N2CC(CS(C)(=O)=O)C2)c2cnc(Nc3ccnc(-c4cnn(C)c4)n3)cc12` (single isomer, unassigned) [Example 18, (S)-2-(3-((2-(1-methyl-1H-pyrazol-4-yl)pyrimidin-4-yl)amino)-8-(3-((methylsulfonyl)methyl)azetidin-1-yl)isoquinolin-5-yl)propan-1-ol or (R)-2-(3-((2-(1-methyl-1H-pyrazol-4-yl)pyrimidin-4-yl)amino)-8-(3-((methylsulfonyl)methyl)azetidin-1-yl)isoquinolin-5-yl)propan-1-ol], the concentration for half-maximal inhibition (IC50) in assay [1] (setting [3]) was above 50 nM; in assay [2], at most 15 nM.
Take `CC(C)c1ccc(N2CC(CS(C)(=O)=O)C2)c2cnc(Nc3ccnc(-c4cncc(Cl)c4)n3)cc12` [Example 14, N-(2-(5-chloropyridin-3-yl)pyrimidin-4-yl)-5-isopropyl-8-(3-((methylsulfonyl)methyl)azetidin-1-yl)isoquinolin-3-amine]: the IC50 in assay [1] (setting [3]) is above 50 nM; in assay [2], 30 to 100 nM.
Turning to `CC(C)c1cnc(N2CC(CS(C)(=O)=O)C2)c2cnc(Nc3ccnc(-c4cnn(C)c4)n3)cc12` [Example 2, 5-isopropyl-N-(2-(1-methyl-1H-pyrazol-4-yl)pyrimidin-4-yl)-8-(3-((methylsulfonyl)methyl)azetidin-1-yl)-2,7-naphthyridin-3-amine], the 50% inhibitory concentration (IC50) was 10 to 20 nM in assay [1] (setting [3]) and at most 15 nM in assay [2].
`CC(C)c1cnc(N2CC(CS(C)(=O)=O)C2)c2cnc(Nc3ccnc([C@]4(C)C[C@@H](O)C4)n3)cc12` (single isomer, unassigned) [Example 25, (1r,3r)-3-(4-((5-isopropyl-8-(3-((methylsulfonyl)methyl)azetidin-1-yl)-2,7-naphthyridin-3-yl)amino)pyrimidin-2-yl)-3-methylcyclobutan-1-ol or (1s,3s)-3-(4-((5-isopropyl-8-(3-((methylsulfonyl)methyl)azetidin-1-yl)-2,7-naphthyridin-3-yl)amino)pyrimidin-2-yl)-3-methylcyclobutan-1-ol]: the results for the IC50 in assay [1] (NCI-H1975 cells) and in assay [2] were above 50 nM and above 100 nM, respectively.
`CC(C)c1ccc(N2CC(CS(C)(=O)=O)C2)c2cnc(Nc3ccnc(-c4cnn(C)c4)n3)cc12` [Example 10, 5-isopropyl-N-(2-(1-methyl-1H-pyrazol-4-yl)pyrimidin-4-yl)-8-(3-((methylsulfonyl)methyl)azetidin-1-yl)isoquinolin-3-amine]: the figures for the IC50 in assay [1] (setting [3]) and in assay [2] were 10 to 20 nM and at most 15 nM, respectively.
For the compound `COc1ccc(-c2nccc(Nc3cc4c(C(C)C)ccc(N5CC(CS(C)(=O)=O)C5)c4cn3)n2)cn1` [Example 11, 5-isopropyl-N-(2-(6-methoxypyridin-3-yl)pyrimidin-4-yl)-8-(3-((methylsulfonyl)methyl)azetidin-1-yl)isoquinolin-3-amine], the figures for the IC50 in assay [1] (setting [3]) and in assay [2] were above 50 nM and 30 to 100 nM, respectively.
Consider `CCS(=O)(=O)CC1CN(c2ccc(C(C)C)c3cc(Nc4ccnc(-c5cnn(C)c5)n4)ncc23)C1` [Example 12, 8-(3-((ethylsulfonyl)methyl)azetidin-1-yl)-5-isopropyl-N-(2-(1-methyl-1H-pyrazol-4-yl)pyrimidin-4-yl)isoquinolin-3-amine], for which the IC50 in assay [1] (setting [3]) is 10 to 20 nM; in assay [2] it was at most 15 nM.
In the case of `Cc1ncc(-c2nccc(Nc3cc4c(C(C)C)cnc(N5CC(CS(C)(=O)=O)C5)c4cn3)n2)s1` [Example 1, 5-isopropyl-8-(3-((methylsulfonyl)methyl)azetidin-1-yl)-N-(2-(2-methylthiazol-5-yl)pyrimidin-4-yl)-2,7-naphthyridin-3-amine], the results for the IC50 in assay [1] (setting [3]) and in assay [2] were 10 to 20 nM and at most 15 nM, respectively.

What is called IC50 is the midpoint of a concentration-inhibition curve.
